Results on 66 compounds are retold here after PubChem BioAssay AID179 (DTP/NCI, 2004).

This assay deals with CEM cells HIV-1 protection, formazan growth assay. Description: NCI AIDS Antiviral Assay. The settings on record: for IC50: measured here: growth of uninfected CEM cells. Summed up: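 Soluble formazan readout of cell growth; CEM cells ± HIV-1; 5 drug concs. ≥50% protection → retest; ≥50% again = moderately active; reproducible 100% = confirmed active.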

Molecules are shown by their SMILES. The source made the active and inactive calls.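 Rule for the calls: active = compounds giving half or more protection of infected cells from virus-caused growth loss, again on retest; inactive = the rest.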 Where a SMILES comes first, the peptide text is derived from it.

In the case of `O=S1(=O)C[C@H](O)[C@H](O)CS1`, the EC50 is 8.32 µM and the IC50 came to 75.9 µM.

`C[CH2][Sn]([CH2]C)([O]C(=O)c1ccc(F)cc1)[O][Sn]([CH2]C)([CH2]C)[O]C(=O)c1ccc(F)cc1`: the EC50 is more than 8.13 µM and the IC50 came out at 6.61 µM.

As for `CC[CH2][Sn]([CH2]CC)([O]C(=O)c1cccnc1SC)[O][Sn]([CH2]CC)([CH2]CC)[O]C(=O)c1cccnc1SC`, the EC50 was more than 24.5 µM and the IC50 is 5.62 µM.

On to `COc1ccc(C2OC2C(=O)C23CC4CC(CC(C4)C2)C3)cc1` (stereo not drawn), for which the EC50 was more than 200 µM and the IC50 came to 52.5 µM.

In the case of `CSc1cnc2ccccc2c1Sc1c[nH]c2ccccc2c1=O`, the EC50 was more than 14.8 µM and the IC50 is 13.2 µM.

As for `CC(=O)c1cc(CC2Cc3cc4c(cc3C2=O)CCC4)cc2c1CCC2` (stereo not drawn), the EC50 was more than 200 µM and the IC50 is 12.9 µM.

As for `Cc1ccc(-c2c3nc(c(-c4ccc(C)cc4)c4ccc([nH]4)c(-c4ccc(C)cc4)c4nc(c(-c5ccncc5)c5ccc2[nH]5)C=C4)C=C3)cc1.Cc1ccc(-c2c3nc(c(-c4ccc(C)cc4)c4ccc([nH]4)c(-c4ccc(C)cc4)c4nc(c(-c5ccncc5)c5ccc2[nH]5)C=C4)C=C3)cc1.Cc1ccc(-c2c3nc(c(-c4ccc(C)cc4)c4ccc([nH]4)c(-c4ccc(C)cc4)c4nc(c(-c5ccncc5)c5ccc2[nH]5)C=C4)C=C3)cc1.Cc1ccc(-c2c3nc(c(-c4ccc(C)cc4)c4ccc([nH]4)c(-c4ccc(C)cc4)c4nc(c(-c5ccncc5)c5ccc2[nH]5)C=C4)C=C3)cc1.O=S(=O)([O-])C(F)(F)F.[Pd]`, the EC50 is more than 25.1 µM and the IC50 was more than 25.1 µM.

For `Cn1c2ccccc2c2nnc(NCCCCO)nc21`, the EC50 was more than 200 µM and the IC50 is more than 200 µM.

As for `Cc1cc(O)cc(O)c1C(=O)O[C@]1(C)C(=O)C=C2C=C(/C=C/C(=O)O)OC=C2C1=O`, the result was inactive.

For the compound `Cc1cc(C)nc(NS(=O)(=O)c2ccc(NC(=O)c3ccc4nc5ccccc5c(Nc5ccc(S(=O)(=O)N=C(N)N)cc5)c4c3)cc2)n1`, the EC50 was 72.4 µM and the IC50 was determined as 141 µM.

Regarding `O=C(O)C1C(C(=O)O)N2C(c3ccccc3)C(C(=O)O)C(C(=O)O)N2C1c1ccccc1` (stereo not drawn), the EC50 is more than 214 µM and the IC50 is more than 214 µM.

As for `NC(=O)c1ncn(CCN2CCN(C(=O)NCCCCCCNC(=O)N3CCN(CCn4cnc(C(N)=O)c4N)CC3)CC2)c1N`, the outcome was inactive.

As to `C=C(Cc1ccc2c(c1)OCO2)C(=C)Cc1ccc(O)cc1O`, the EC50 is more than 200 µM and the IC50 is 55 µM.

For `CC(C)CC(NC(=O)C(NC(=O)C(CO)NC(=O)C(C)NC(=O)C(CCCN=C(N)N)NC(=O)C(C)NC(=O)CN)C(C)C)C(=O)NC(CO)C(N)=O` (stereo not drawn) (H-GARASVLS-NH2; configuration not given here), the result was inactive.

For `CN1c2ccccc2S(=O)(=O)n2c(COc3ccc(Cl)cc3)nnc21`, the EC50 is more than 200 µM and the IC50 was more than 200 µM.

With `c1ccc(CCCC2Sc3cccc4cccc(c34)S2)cc1`, the EC50 was more than 11.7 µM and the IC50 is more than 11.7 µM.

In the case of `CC(=O)NCCCCN(CCCNC(C)=O)C(=O)OCc1ccccc1`, the EC50 was more than 200 µM and the IC50 was more than 200 µM.

Consider `CC1(C)C(=NN=C(N)N)C(C)(C)C1=NN=C(N)N`, for which the EC50 was more than 50.1 µM and the IC50 is more than 50.1 µM.

Take `Cc1cc(C)c(S(=O)(=O)N(CCCN)OCCCN)c(C)c1`: the EC50 is more than 200 µM and the IC50 was determined as 195 µM.

Regarding `NC(=O)c1ncn(C/C=C/CO)c1N`, the EC50 was more than 200 µM and the concentration for half-maximal inhibition (IC50) is more than 200 µM.

In the case of `Cc1cc2c(C(C)C)c(O)c(O)c(C=Nc3ccc(C(=O)NCC(=O)O)cc3)c2c(O)c1-c1c(C)cc2c(C(C)C)c(O)c(O)c(C=Nc3ccc(C(=O)NCC(=O)O)cc3)c2c1O`, the EC50 was more than 200 µM and the IC50 stood at 25.7 µM.

For `O=C1/C(=C\c2ccc(Cl)cc2Cl)Sc2scc(-c3cccc([N+](=O)[O-])c3)[n+]21`, the result was inactive.

On to `COc1cc(COC(=O)N2CCC2C(=O)O)c([N+](=O)[O-])cc1OC` (stereo not drawn), for which the EC50 was more than 741 µM and the concentration for half-maximal inhibition (IC50) is more than 741 µM.

Regarding `CC(=O)O[C@H]1C(=O)[C@@]2(C)[C@H]([C@H](OC(=O)c3ccccc3)[C@]3(O)C[C@H](OC(=O)[C@H](O)[C@@H](NC(=O)c4ccccc4)c4ccccc4)C(C)=C1C3(C)C)[C@]1(OC(C)=O)CO[C@@H]1C[C@@H]2O`, the EC50 is more than 0.417 µM and the IC50 stood at 0.0135 µM.

As to `CC(C)c1cccc2sc(NC(=O)C(=O)CC(=O)c3ccc(F)cc3)nc12`, the result was inactive.

For `Cc1c(C(Cc2ccccc2N(C)C(=O)/C=C\C(=O)O)c2c[nH]c3ccccc23)c2ccccc2n1C` (stereo not drawn), the EC50 was more than 363 µM and the IC50 worked out at 22.4 µM.

For `O=C1c2ccc3cc(CCl)cc(O)c3c2C(=O)c2cccc(O)c21`, the EC50 is more than 200 µM and the IC50 came out at 5.25 µM.

On to `CC(C)(CCC(C)(C)N1OC1c1ccccc1)N1OC1c1ccccc1` (stereo not drawn), for which the EC50 is more than 200 µM and the IC50 amounted to 19.1 µM.

As to `CC1(CCCC2(C)CCNC2=O)OCCO1` (stereo not drawn), the EC50 was more than 200 µM and the IC50 is more than 200 µM.

In the case of `O=C(NNC(c1ccccc1)C(F)(F)F)c1ccncc1` (stereo not drawn), the EC50 is more than 200 µM and the IC50 was more than 200 µM.

`C=CCCC(=O)N1CCC(C(=O)OCC)C1=O` (stereo not drawn): the EC50 was more than 200 µM and the IC50 was more than 200 µM.

For the compound `CCN(CC)CCNc1nc2c([nH]1)c(=O)n(C)c(=O)n2C`, the EC50 was more than 759 µM and the IC50 was 219 µM.

Regarding `OCCN(CCO)c1cccc(N(CCO)CCO)n1`, the result was inactive.

In the case of `C=CCCC[P+](c1ccccc1)(c1ccccc1)c1ccccc1`, the EC50 is more than 200 µM and the IC50 came out at 1.15 µM.

`N#CCN1CCCCCc2ccccc21`: the EC50 was more than 200 µM and the IC50 was more than 200 µM.

For the compound `N#Cc1ncn(Cc2ccccc2)c1N`, the EC50 was more than 200 µM and the IC50 is more than 200 µM.

Regarding `CCOC(=O)/C=C/n1cc(C)c(=O)[nH]c1=O`, the EC50 was more than 224 µM and the half-inhibitory concentration (IC50) came to 117 µM.

Regarding `Cn1c2ccccc2c2c3c(ccc21)C(=O)c1ccccc1C3=O`, the EC50 was more than 17 µM and the IC50 is more than 17 µM.

Take `Nc1ncnc2nc(-c3ccc(C[P+](c4ccccc4)(c4ccccc4)c4ccccc4)cc3)[nH]c12`: the EC50 is more than 200 µM and the 50% inhibitory concentration (IC50) is more than 200 µM.

Regarding `O=C(c1ccccc1)c1ccc2cccc(O)c2n1`, the EC50 is more than 75.9 µM and the IC50 was 50.1 µM.

As for `CSc1nc(-c2ccccc2)c2c(n1)-c1ccccc1CC2`, the EC50 was more than 12.3 µM and the IC50 is more than 12.3 µM.

On to `O=C(c1ccccc1)c1nc2ccc(Cl)cc2c2c1CCCO2`, for which the EC50 was more than 16.2 µM and the IC50 was more than 16.2 µM.

In the case of `Cc1cc2c(c(C#N)c1C)NC(=O)CN=C2c1ccccc1F`, the EC50 was 70.8 µM and the IC50 was more than 200 µM.

Regarding `Cc1ccc2c(c1)C1(OC(=O)c3ccccc31)c1ccc(F)cc1O2` (stereo not drawn), the EC50 is more than 91.2 µM and the IC50 was 22.9 µM.

As to `CCCCCCc1cn([C@H]2C[C@H](O)[C@@H](CO)O2)c(=O)[nH]c1=O`, the result was inactive.

In the case of `OCC(O)CC[CH2][Sn]([c]1ccccc1)([c]1ccccc1)[c]1ccccc1` (stereo not drawn), the result was inactive.

Regarding `O=[N+]([O-])c1ccc2ncccc2c1CCc1c([N+](=O)[O-])ccc2ncccc12`, the outcome was inactive.

Take `Nc1ncnc2c1ncn2CC(=O)NCCCCO`: the EC50 was more than 200 µM and the IC50 was more than 200 µM.

Turning to `O=C(O)/C(=C/c1ccccc1[N+](=O)[O-])c1ccccc1`, the EC50 was more than 603 µM and the IC50 was 550 µM.

For the compound `CCCN=C(N)C(C)=O`, the EC50 is more than 1950 µM and the IC50 is more than 1950 µM.

On to `C=C1C[C@@H]2O[C@H]3[C@H]4[C@@H](C[C@@H](C)[C@@H](OC(C)=O)[C@H]42)[C@@H](C)CO[C@@]3(C)[C@H](OC(C)=O)C[C@H]1O`, for which the EC50 was more than 200 µM and the IC50 is 51.3 µM.

In the case of `CCCc1c(C(=O)OCC)[nH]c(C(=O)CCC(=O)c2[nH]c(C(=O)OCC)c(CCC)c2C(=O)OCC)c1C(=O)OCC`, the EC50 is more than 17 µM and the half-maximal inhibitory concentration (IC50) was more than 17 µM.

On to `Cc1cc(O)c(/C=N/c2nc(-c3cccc([N+](=O)[O-])c3)cs2)c(=O)o1`, for which the EC50 was more than 200 µM and the IC50 worked out at 35.5 µM.

On to `Sc1ccc(Nc2c3ccccc3nc3ccccc23)cc1`, for which the EC50 is more than 200 µM and the IC50 came to 14.5 µM.

Take `CC1(C)CC(=O)C(C(CC(c2ccccc2)c2cc3c(cc2O)OCO3)C2=C(O)CC(C)(C)CC2=O)=C(O)C1` (stereo not drawn): the EC50 was more than 200 µM and the IC50 came out at 112 µM.

Take `COc1ccc(C2CC(c3c(O)ccc4ccccc34)=NN2c2ccc([N+](=O)[O-])cc2[N+](=O)[O-])cc1OC` (stereo not drawn): the EC50 is more than 200 µM and the IC50 came to 15.8 µM.

In the case of `CC(=O)OCCCC(NC(=O)OC(C)(C)C)C(=O)NC(CCCOC(C)=O)C(=O)NC(Cc1ccc([N+](=O)[O-])cc1)C(=O)NCC(=O)OCc1ccccc1` (stereo not drawn), the EC50 is more than 200 µM and the IC50 is 16.2 µM.

Consider `CC1(C)OCC2OC3(CO)NP(=O)(N(CCCl)CCCl)OC3C2O1` (stereo not drawn), for which the outcome was inactive.

In the case of `COc1cc(OC)c(C(=O)c2cccs2)cc1N`, the result was inactive.

With `CC(C)(O)CCC(O)[C@](C)(O)C1CCC2(O)C3=CC(=O)[C@@H]4C[C@@H](O)[C@@H](O)C[C@]4(C)C3CC[C@]12C` (stereo partly drawn), the outcome was inactive.

Regarding `CCOP(=O)(OCC)C1CC(O)C(=O)N1` (stereo not drawn), the EC50 is more than 200 µM and the IC50 was more than 200 µM.

As to `Cc1cc(C)nc(SC(F)(F)c2nc3ccccc3o2)n1`, the result was active.

`NC1=Nc2ccccc2Sc2nccn21`: the EC50 was more than 200 µM and the IC50 is 28.8 µM.

With `Nc1nc2cnc(COc3ccccc3)nc2c(=O)[nH]1`, the EC50 was more than 200 µM and the IC50 is more than 200 µM.

`OCC1CC(F)C(n2cnc3c(Br)ncnc32)O1` (stereo not drawn): the EC50 is more than 158 µM and the IC50 turned out to be 27.5 µM.

For the compound `COc1ccc(-c2oc3cc(O)c(OC)c(O)c3c(=O)c2OC2OC(CO)C(O)C(O)C2O)cc1` (stereo not drawn), the outcome was inactive.
